Data reported in PubChem BioAssay (NCI).
“And” between values parts separate entries of the source, which are not always exact repeats. Identical values can stand only once.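 Five compound concentrations were applied to cells in 96-well plates for 48 hours; endpoints were derived by simple linear interpolation of the resulting dose-response curve. Here, GI50 denotes the concentration required for 50% inhibition of growth. TGI is the concentration that stops growth completely.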

Tests used:
Assay in all cases: inhibition of tumour cell growth, NCI panel, 48 h
[1] = test system: A498 renal
[2] = test system: CCRF-CEM leukemia
[3] = test system: LOX IMVI melanoma
[4] = test system: MDA-N
[5] = test system: OVCAR-8 ovarian
[6] = test system: SF-268 CNS
[7] = test system: SF-295 CNS
[8] = test system: SK-MEL-5 melanoma
[9] = test system: SK-OV-3 ovarian
[10] = test system: LXFL 529 NSCLC
[11] = test system: M19-MEL melanoma

Structure (SMILES) | TGI [1] | TGI [2] [µM] | TGI [3] | TGI [4] | TGI [5] | TGI [6] | TGI [7] | TGI [8] | TGI [9] | TGI [10] [µM] | TGI [11] [µM] | GI50 [1] [nM] | GI50 [2] [µM] | GI50 [3] | GI50 [4] [nM] | GI50 [5] | GI50 [7] [µM] | GI50 [8] [nM]
CN1C/C(=C\c2cccs2)C2=NC(=S)NC(c3cccs3)C2C1 (stereo unspecified) | > 100 µM | 53.5 | > 100 µM | > 100 µM | > 100 µM | > 100 µM | > 100 µM | > 100 µM | > 100 µM |  |  |  |  |  |  |  |  | 
O=C(O)CCCl |  | > 5000 | > 5000 µM |  | > 5000 µM | > 5000 µM | > 5000 µM | > 5000 µM | > 5000 µM | > 5000 | > 5000 |  |  |  |  |  |  | 
c1ccc(CNC2CC(NCc3ccccn3)CC(NCc3ccccn3)C2)nc1 (stereo unspecified) | 3.31 µM and 6.25 µM and 3.51 µM |  | 6.95 µM and 14.5 µM and 7.77 µM | 12.5 µM and 11.3 µM and 4.78 µM | 8.59 µM and 25 µM and 9.53 µM | 15.7 µM and 13.3 µM and 16.3 µM | 18.9 µM and 20.9 µM and 36.5 µM | 5.52 µM and 7.49 µM and 3.68 µM | 7.86 µM and 8.7 µM and 7.17 µM |  |  | 2060 | 4.64 | 2620 nM and 5400 nM and 2830 nM | 2220 | 2.88 µM and 7.94 µM and 3.62 µM | 5.03 | 1880
CC[n+]1cnc(N)c2c(-c3ccc(Cl)cc3)cn(-c3ccc(C)cc3)c21 | 24 µM | 22.7 | 25.9 µM | 25 µM | 32.7 µM | 26.7 µM | 25.3 µM | 22 µM | 29 µM |  |  |  |  |  |  |  |  | 
CCc1nn(CN2CCN(C)CC2)c(=S)n1/N=C\c1ccc(-c2ccc([N+](=O)[O-])cc2)o1 | 54.7 µM | > 100 | > 100 µM | > 100 µM | > 100 µM | > 100 µM | > 100 µM | > 100 µM | > 100 µM |  |  |  |  |  |  |  |  | 
COc1ccc(Cn2c(C)nc3c2C(=O)c2ccccc2C3=O)cc1 |  | 37.3 | 11.2 µM |  | > 75 µM | 68.1 µM | 58.2 µM | 16.6 µM | > 75 µM | 28.7 | 16.7 |  |  |  |  |  |  | 
COc1cc(/C=C/C(=O)OCC23CC[C@@]4(C(=O)O)CCC(C)[C@H](C)C4C2=CCC2[C@@]4(C)CC[C@H](O)C(C)(C)C4CC[C@]23C)ccc1O (stereo partly specified) | 68.5 µM | 22.3 | 34.2 µM | 60.7 µM | 35.7 µM | 33.3 µM | 73.9 µM | 32.9 µM | 83.4 µM |  |  |  |  |  |  |  |  | 
O=C1c2c(F)c(F)c(F)c(F)c2SC2=NCCN12 | 32.9 µM | > 21.6 | 3.07 µM | 11.9 µM | 24.5 µM | 28.2 µM | 32.4 µM | 28.4 µM | 28.7 µM |  |  |  |  |  |  |  |  | 
CCOc1cc2c(cc1O)/C(=N\N)C[C@@H]1[C@@H]2CC[C@]2(C)[C@@H](O)CC[C@@H]12 | > 100 µM | > 100 | > 41.5 µM | 4.53 µM | > 42.9 µM | > 44.9 µM | 6.15 µM | 28 µM | > 100 µM |  |  |  |  |  |  |  |  | 
CCOc1ccc2nc(NC(=O)C(=O)C(C(=O)c3ccccc3-c3ccccc3)C3OC(=O)c4ccccc43)sc2c1 (stereo unspecified) | 48.1 µM | 64.2 | 39.4 µM | 70.9 µM | 25.7 µM | 79.5 µM | > 93.8 µM | 31.3 µM | > 72.6 µM | 41.1 | 44.2 |  |  |  |  |  |  | 
OCC1OC(c2scc3c(=S)nc[nH]c23)C(O)C1O (stereo unspecified) | > 54.1 µM | > 100 | > 82.5 µM | > 100 µM | 39.6 µM | > 100 µM | > 92.8 µM | > 73.6 µM | 35.4 µM |  |  |  |  |  |  |  |  | 
C=C1C(=O)OC2/C=C(\C)C(OC(C)=O)C3OC3C(C)(O)CC(OC(=O)/C(C)=C/C)C12 (stereo unspecified) | 32.1 µM | 9.45 | 30.4 µM |  | 24.4 µM | 30.2 µM | 42.4 µM | 27.4 µM | 34.5 µM | 10.1 | 22.3 |  |  |  |  |  |  | 
C1=C(c2ccccc2)CN(c2ccccc2)OC1 |  | > 100 | > 100 µM |  |  | > 100 µM |  |  | > 100 µM | > 100 | > 100 |  |  |  |  |  |  | 
O=C(Nc1c(O)[nH]c(=S)[nH]c1=O)c1ccccn1 | > 100 µM | > 100 | > 100 µM |  | > 100 µM | > 100 µM | > 100 µM | > 100 µM | > 100 µM | > 100 | > 100 |  |  |  |  |  |  | 
O=C(O)[C@H]1[C@@H](C2CCCCC2)O[C@@H](C2CCCCC2)O[C@H]1C(F)(F)F | 35.9 µM | 47.7 | 36.5 µM | 30.7 µM | 45.5 µM | 44.2 µM | 39.5 µM | 44.4 µM | > 100 µM |  |  |  |  |  |  |  |  | 
C=C(C)[C@@H]1CC[C@]2(C(=O)O)CC[C@]3(C)[C@H](CC[C@@H]4[C@@]5(C)CC(=O)C(C)(C)[C@@H]5CC[C@]43C)[C@@H]12 | 17.2 µM | 2.86 | > 25 µM | > 25 µM | > 25 µM | > 25 µM | > 25 µM | 13.3 µM | > 25 µM |  |  |  |  |  |  |  |  | 
